From PMC5321741, “Arylmethylamino steroids as antiparasitic agents” (Nature Communications, 2017)

Tested on: P. falciparum gametocytes (pfs16-GFP-Luc, NF54 background)
Assay: gametocyte luciferase assay
Type: cell-based, Plasmodium falciparum
Method: Sensitivity of P falciparum gametocytes to lead compound 1o was determined by measuring the activity of luciferase in luciferase-expressing gametocytes after an exposure of 72 h to different concentrations of compound 1o.
The pfs16-GFP-Luc (NF54 background) parasite strain[44] was maintained at 1 to 10% parasitaemia in an RPMI 1640 culture medium supplemented with A+ erythrocytes (2% haematocrit), 10% decomplemented human serum, 9 mM (0.16%) glucose, 0.2 mM hypoxanthine, 2.1 mM L-glutamine, and 20 μg ml^−1 gentamicin. Parasite cultures were incubated at 37 °C in 5% O2, 5% CO2, and 90% N2. […] Following drug exposure, parasites were cultivated for two additional days in normal medium before centrifugation and freezing at −80 °C, and luciferase activity was measured.
Plates frozen at −80 °C were thawed at 37 °C. […] Luciferase activity was measured on a luminescence plate reader (Mithras LB940 luminometer, Berthold Technologies). The mean of the luciferase activity was calculated for each technical triplicate and normalized as follows: (Lucx−LucRBC)/(Lucsolvent−LucRBC) with Lucx and Lucsolvent=mean luciferase activity for parasites incubated with compound x and with solvent (DMSO for 1o and PBS for MB), respectively, and LucRBC=mean luciferase activity of non-infected red blood cells (background). […]

COc1ccc2c(c1)CCC1C2CC[C@@]2(C)C1CC[C@H]2NCc1cc2ccccc2cc1O (some centres unmarked) [1o]
relative survival of gametocytes (concentrations >5 nM, all stages, 72 h exposure): below 50%
complete killing of gametocytes (even at concentrations >1 μM): never detected complete killing of gametocytes
